Consider 11 compounds from patent US4032536A, “(1H-Benzimidazol-2-yl)carbamates” (Janssen Pharmaceutica N.V., priority 1976, dated 1977).

Assay [1] relates to Syphacia muris. Briefly: Activity against Syphacia muris in rats. It is filed as in vivo. To be noted: po, 120 h, orally by gavage, autopsy five days after treatment. How it is done:
A. Activity against Syphacia muris in rats.
(§1) Syphacia muris was selected as a test organism since this organism manifests its relationship with the human oxyuris, Enterobin vermicularis,by its life cycle, by the cyclical period of activity and by laying its eggs in the peri-anal zone. For artificial infections, adhesive cellophane tape is used to recover the eggs from the peri-anal skin and this tape is administered orally to rats. The thus-infected animals are housed in individual cages with food and water ad libitum. The compound to be tested is administered orally by gavage. A sterile saline solution or suspension of the compound is made at various concentrations corresponding to 40, 10, 2.5, 1.25, 0.63, 0.31 and 0.16 mg/kg body weight. Control animals receive the same amount of saline. Five days thereafter the animals are sacrificed. Coecum, colon and rectum are isolated and washed on a sieve of mesh 100. Table I gives the ED50 -values for a number of the compounds of formula (I). The compounds listed therein are not given for the purpose of limiting the invention thereto but only to exemplify the useful anthelmintic properties of all the compounds within the scope of formula (I).

Assay [2] concerns Strongyloides ratti. Kind of assay: Activity against Strongyloides ratti in rats. It is filed as in vivo. To be noted: po, young male Wistar rats, orally, treated on day 7 after infection, autopsied day 13, 50% reduction of number of worms vs untreated controls. On the procedure:
as §1
B. Activity against Strongyloides ratti in rats.
Young male Wistar rats, weighing about 100 g are used in this test. Infective larvae of Strongyloides ratti are collected from charcoal cultures, put into a beaker with tapwater and stirred magnetically for counting. The rats are infected subcutaneously with about 1000 larvae, treated on day 7 after infection in the same manner as described in experiment A, and autopsied on day 13. The anterior part of the intestine is divided into two sections, each of 10 cm. length and placed inside out on a wood-applicator. These sections are incubated in physiological saline for 4 hours at 37° C. Worms obtained from the sedimentation of incubation saline are sampled and counted under a dissection microscope. In table I are given ED50 -values for a number of compounds of formula (I). These ED50 -values represent the amount of the compound under investigation in mg/kg which reduces the number of worms 50% with respect to the number found in the untreated control animals.

What is called ED50 is the dose that gives a 50% effect, or the effect in half of the subjects. In the case of `COC(=O)Nc1nc2ccc(C3(c4cccs4)OCCO3)cc2[nH]1`, the median effective dose (ED50) in assay [1] and in assay [2] was 2.5 mg/kg throughout.
`COC(=O)Nc1nc2ccc(C3(c4ccccc4)OCCO3)cc2[nH]1`: the ED50 came to 1.25 mg/kg in assay [1] and 0.63 mg/kg in assay [2].
Consider `COC(=O)Nc1nc2ccc(C3(c4ccc(F)cc4)OCCO3)cc2[nH]1`, for which the ED50 in assay [1] was 5 mg/kg; in assay [2], 0.31 mg/kg.
Consider `COC(=O)Nc1nc2ccc(C3(c4ccccc4)OCC(C)O3)cc2[nH]1` (stereo not shown), for which the ED50 amounted to 2.5 mg/kg in assay [1] and 0.31 mg/kg in assay [2].
In the case of `COC(=O)Nc1nc2ccc(C3(c4ccccc4)OC(C)C(C)O3)cc2[nH]1` (stereo not shown), the median effective dose (ED50) amounted to 2.5 mg/kg in assay [1] and 1.25 mg/kg in assay [2].
As to `COC(=O)Nc1nc2ccc(C3(c4cccs4)OC(C)C(C)O3)cc2[nH]1` (stereo not shown), the median effective dose (ED50) in assay [1] is 2.5 mg/kg; in assay [2], 10 mg/kg.
As for `COC(=O)Nc1nc2ccc(C3(c4cccs4)OCC(C)O3)cc2[nH]1` (stereo not shown), the ED50 in assay [1] and in assay [2] was 10 mg/kg in each case.
On to `COC(=O)Nc1nc2ccc(C3(c4ccccc4)OCC(C)(C)CO3)cc2[nH]1`, for which the ED50 came out at 10 mg/kg in assay [1] and 2.5 mg/kg in assay [2].
Regarding `COC(=O)Nc1nc2ccc(C3(c4cccs4)OCC(C)(C)CO3)cc2[nH]1`, the ED50 in assay [1] was 40 mg/kg; in assay [2], 10 mg/kg.
On the same counts, the results for `COC(=O)Nc1nc2ccc(C3(c4cccs4)OCCC(C)O3)cc2[nH]1` (stereo not shown) are 10 mg/kg and 10 mg/kg.
`COC(=O)Nc1nc2ccc(C3(c4ccccc4)OCCC(C)O3)cc2[nH]1` (stereo not shown): the ED50 in assay [1] was found to be 40 mg/kg; in assay [2], 1.25 mg/kg.
